The target of the assay is T1, PD-1/PD-L1 interaction (Homo sapiens, UniProt Q9NZQ7).
T1 construct: expressed in transfected cells; host or cells: CHO cells (aAPC-PD-L1) co-cultured with Jurkat cells overexpressing PD-1 and an NFAT-luciferase reporter
T1 sequence (Q9NZQ7 19-290): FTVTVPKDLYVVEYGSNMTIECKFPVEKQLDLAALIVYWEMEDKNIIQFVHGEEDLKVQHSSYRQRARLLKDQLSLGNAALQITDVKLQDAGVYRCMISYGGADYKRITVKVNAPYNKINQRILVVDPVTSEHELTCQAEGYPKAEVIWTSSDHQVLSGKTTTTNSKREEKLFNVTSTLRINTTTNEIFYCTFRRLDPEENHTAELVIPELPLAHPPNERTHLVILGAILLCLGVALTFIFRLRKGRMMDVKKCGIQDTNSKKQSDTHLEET
Put plainly: PD-1/PD-L1 NFAT reporter co-culture assay. The assay is classed as cell-based. Particulars: Jurkat PD-1 NFAT-luciferase cells co-cultured with aAPC-PD-L1 CHO cells, 6 hrs at 37° C.; read-out: EC50 NFAT Luciferase. The procedure, abridged:
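Compounds are scored by restoration of NFAT-luciferase signal in PD-1-expressing Jurkat cells cultured 6 h at 37 °C on CHO cells presenting anti-CD3 and PD-L1; EC50 values derive from four-parameter curve fitting.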
Take `COc1nc(OCc2cccc(-c3cccc(COc4nc(OC)c(CNCC(O)C(F)F)cc4Cl)c3C)c2C)c(Cl)cc1CNCC(O)C(F)F` (stereo not drawn) [Example 176, 3,3′-((((((2,2′-dimethyl-[1,1′-biphenyl]-3,3′-diyl)bis(methylene))bis(oxy))bis(5-chloro-2-methoxypyridine-6,3-diyl))bis(methylene))bis(azanediyl))bis(1,1-difluoropropan-2-ol)]: the EC50 (commonly the concentration giving half of the maximal effect) was 2880 nM. For the molecule `COc1nc(OCc2cccc(-c3cccc(COc4nc(OC)c(CN[C@H]5CCC[C@@H](C(=O)O)C5)cc4Cl)c3C)c2C)c(Cl)cc1CN[C@H]1CCC[C@@H](C(=O)O)C1` [Example 184, (1R,1′R,3S,3′S)-3,3′-((((((2,2′-dimethyl-[1,1′-biphenyl]-3,3′-diyl)bis(methylene))bis(oxy))bis(5-chloro-2-methoxypyridine-6,3-diyl))bis(methylene))bis(azanediyl))bis(cyclohexane-1-carboxylic acid)], the EC50 worked out at 1390 nM. As for `COc1nc(OCc2cccc(-c3cccc(COc4nc(OC)c(CNC[C@@H](O)CC(=O)O)cc4Br)c3Cl)c2Cl)c(Br)cc1CNC[C@@H](O)CC(=O)O` [Example 189, (3S,3′S)-4,4′-((((((2,2′-Dichloro-[1,1′-biphenyl]-3,3′-diyl)bis(methylene))bis(oxy))bis(5-bromo-2-methoxypyridine-6,3-diyl))bis(methylene))bis(azanediyl))bis(3-hydroxybutanoic acid)], the figure is 106 nM. For the molecule `COc1nc(OCc2cccc(-c3cccc(COc4nc(OC)c(CNC[C@@H](O)CC(=O)O)cc4Br)c3Cl)c2Cl)ccc1CNC[C@@H](O)CC(=O)O` [Example 190, (S)-4-(((6-((3′-(((3-Bromo-5-((((S)-3-carboxy-2-hydroxypropyl)amino)methyl)-6-methoxypyridin-2-yl)oxy)methyl)-2,2′-dichloro-[1,1′-biphenyl]-3-yl)methoxy)-2-methoxypyridin-3-yl)methyl)amino)-3-hydroxybutanoic acid], the EC50 came out at 516 nM. As for `N#Cc1cncc(COc2nc(OCc3cccc(-c4cccc(COc5nc(OCc6cncc(C#N)c6)c(CNC[C@@H](O)CC(=O)O)cc5Br)c4Cl)c3Cl)ccc2CNC[C@@H](O)CC(=O)O)c1` [Example 194, (S)-4-(((6-((3′-(((3-Bromo-5-((((S)-3-carboxy-2-hydroxypropyl)amino)methyl)-6-((5-cyanopyridin-3-yl)methoxy)pyridin-2-yl)oxy)methyl)-2,2′-dichloro-[1,1′-biphenyl]-3-yl)methoxy)-2-((5-cyanopyridin-3-yl)methoxy)pyridin-3-yl)methyl)amino)-3-hydroxybutanoic acid], the figure is 1260 nM.

For the molecule `N#Cc1cncc(COc2nc(OCc3cccc(-c4cccc(COc5ccc(CNC[C@@H](O)CC(=O)O)c(OCc6cncc(C#N)c6)n5)c4Cl)c3Cl)ccc2CNC[C@@H](O)CC(=O)O)c1` [Example 195, (3S,3′S)-4,4′-((((((2,2′-Dichloro-[1,1′-biphenyl]-3,3′-diyl)bis(methylene))bis(oxy))bis(2-((5-cyanopyridin-3-yl)methoxy)pyridine-6,3-diyl))bis(methylene))bis(azanediyl))bis(3-hydroxybutanoic acid)], the half-maximal effective concentration (EC50) turned out to be 408 nM. Take `C[C@@](CO)(NCc1cc(Br)c(OCc2cccc(-c3cccc(COc4nc(OCc5cncc(C#N)c5)c(CN[C@@](C)(CO)C(=O)O)cc4Br)c3Cl)c2Cl)nc1OCc1cncc(C#N)c1)C(=O)O` [Example 197, (2S,2′S)-2,2′-((((((2,2′-Dichloro-[1,1′-biphenyl]-3,3′-diyl)bis(methylene))bis(oxy))bis(5-bromo-2-((5-cyanopyridin-3-yl)methoxy)pyridine-6,3-diyl))bis(methylene))bis(azanediyl))bis(3-hydroxy-2-methylpropanoic acid)]: the EC50 was 98 nM. As for `Cc1c(COc2cc(OCc3cncc(C#N)c3)c(CNCC(C)(O)CC(=O)O)cc2Cl)cccc1-c1cccc(COc2cc(OCc3cncc(C#N)c3)c(CNCC(C)(O)CC(=O)O)cc2Cl)c1C` (stereo not drawn) [Example 218, 4,4′-((((((2,2′-dimethyl-[1,1′-biphenyl]-3,3′-diyl)bis(methylene))bis(oxy))bis(5-chloro-2-((5-cyanopyridin-3-yl)methoxy)-4,1-phenylene))bis(methylene))bis(azanediyl))bis(3-hydroxy-3-methylbutanoic acid)], the figure is 680 nM; as for `COc1nc(OCc2cccc(-c3cccc(COc4nc(OC)c(CN[C@H]5CCC[C@H]5O)cc4Cl)c3C)c2C)c(Cl)cc1CN[C@H]1CCC[C@H]1O` [Example 226, (1R,1′R,2S,2′S)-2,2′-((((((2,2′-dimethyl-[1,1′-biphenyl]-3,3′-diyl)bis(methylene))bis(oxy))bis(5-chloro-2-methoxypyridine-6,3-diyl))bis(methylene))bis(azanediyl))bis(cyclopentan-1-ol)], 775 nM; as for `COc1nc(OCc2cccc(-c3cccc(COc4nc(OC)c(CN[C@@H]5CCC[C@@H]5O)cc4Cl)c3C)c2C)c(Cl)cc1CN[C@@H]1CCC[C@@H]1O` [Example 227, (1S,1′S,2R,2′R)-2,2′-((((((2,2′-dimethyl-[1,1′-biphenyl]-3,3′-diyl)bis(methylene))bis(oxy))bis(5-chloro-2-methoxypyridine-6,3-diyl))bis(methylene))bis(azanediyl))bis(cyclopentan-1-ol)], 615 nM. As to `COc1nc(OCc2cccc(-c3cccc(COc4nc(OC)c(CN[C@H]5CCCC[C@H]5O)cc4Cl)c3C)c2C)c(Cl)cc1CN[C@H]1CCCC[C@H]1O` [Example 228, (1R,1′R,2S,2′S)-2,2′-((((((2,2′-dimethyl-[1,1′-biphenyl]-3,3′-diyl)bis(methylene))bis(oxy))bis(5-chloro-2-methoxypyridine-6,3-diyl))his(methylene))his(azanediyl))his(cyclohexan-1-ol)], the EC50 worked out at 844 nM. As to `COc1nc(OCc2cccc(-c3cccc(COc4nc(OC)c(CN[C@H]5CCCC[C@@H]5O)cc4Cl)c3C)c2C)c(Cl)cc1CN[C@H]1CCCC[C@@H]1O` [Example 229, (1S,1′S,2S,2′S)-2,2′-((((((2,2′-dimethyl-[1,1′-biphenyl]-3,3′-diyl)bis(methylene))bis(oxy))bis(5-chloro-2-methoxypyridine-6,3-diyl))bis(methylene))bis(azanediyl))bis(cyclohexan-1-ol)], the half-maximal effective concentration (EC50) was determined as 1220 nM. Take `COc1nc(OCc2cccc(-c3cccc(COc4nc(OC)c(CN[C@H]5CCC[C@@H]5O)cc4Cl)c3C)c2C)c(Cl)cc1CN[C@H]1CCC[C@@H]1O` [Example 230, (1S,1′S,2S,2′S)-2,2′-((((((2,2′-dimethyl-[1,1′-biphenyl]-3,3′-diyl)bis(methylene))bis(oxy))bis(5-chloro-2-methoxypyridine-6,3-diyl))bis(methylene))bis(azanediyl))bis(cyclopentan-1-ol)]: the EC50 came out at 821 nM. `COc1nc(OCc2cccc(-c3cccc(COc4nc(OC)c(CN5CCOC[C@H]5C(=O)O)cc4Cl)c3C)c2C)c(Cl)cc1CN1CCOC[C@H]1C(=O)O` [Example 233, (3S,3′S)-4,4′-(((((2,2′-dimethyl-[1,1′-biphenyl]-3,3′-diyl)bis(methylene))bis(oxy))bis(5-chloro-2-methoxypyridine-6,3-diyl))bis(methylene))bis(morpholine-3-carboxylicacid)]: the half-maximal effective concentration (EC50) is 11600 nM. As for `COc1nc(OCc2cccc(-c3cccc(COc4nc(OC)c(CN5CCOC(C(=O)O)C5)cc4Cl)c3C)c2C)c(Cl)cc1CN1CCOC(C(=O)O)C1` (stereo not drawn) [Example 235], the figure is at least 50000 nM; as for `COc1nc(OCc2cccc(-c3cccc(COc4nc(OC)c(C(=O)NC[C@@H](O)CC(=O)O)cc4Cl)c3C)c2C)c(Cl)cc1C(=O)NC[C@@H](O)CC(=O)O` [Example 237, (3S,3′S)-4,4′-((6,6′-(((2,2′-dimethyl-[1,1′-biphenyl]-3,3′-diyl)bis(methylene))bis(oxy))bis(5-chloro-2-methoxynicotinoyl))bis(azanediyl))bis(3-hydroxybutanoic acid)], at least 50000 nM. With `COc1nc(OCc2cccc(-c3cccc(COc4nc(OC)c(CN5CC[C@H](O)C5)cc4Br)c3C)c2C)c(Br)cc1CN1CC[C@H](O)C1` [Example 244, (3S,3′S)-1,1′-(((((2,2′-dimethyl-[1,1′-biphenyl]-3,3′-diyl)bis(methylene))bis(oxy))bis(5-bromo-2-methoxypyridine-6,3-diyl))bis(methylene))bis(pyrrolidin-3-ol)], the EC50 was 390 nM.

`COc1nc(OCc2cccc(-c3cccc(COc4nc(OC)c(CN5CC[C@@H](O)C5)cc4Br)c3C)c2C)c(Br)cc1CN1CC[C@@H](O)C1` [Example 247, (3R,3′R)-1,1′-(((((2,2′-dimethyl-[1,1′-biphenyl]-3,3′-diyl)bis(methylene))bis(oxy))bis(5-bromo-2-methoxypyridine-6,3-diyl))bis(methylene))bis(pyrrolidin-3-ol)]: the 50% effective concentration (EC50) came out at 776 nM. In the case of `COc1nc(OCc2cccc(-c3cccc(COc4nc(OC)c(C5COCCN5)cc4Br)c3C)c2C)c(Br)cc1C1COCCN1` (stereo not drawn) [Example 249, 3,3′-((((2,2′-dimethyl-[1,1′-biphenyl]-3,3′-diyl)bis(methylene))bis(oxy))bis(5-bromo-2-methoxypyridine-6,3-diyl))dimorpholine], the EC50 was at least 50000 nM. As to `COc1nc(OCc2cccc(-c3cccc(COc4nc(OC)c(CN5CC(O)C5)cc4Br)c3C)c2C)c(Br)cc1CN1CC(O)C1` [Example 255, 1,1′-(((((2,2′-dimethyl-[1,1′-biphenyl]-3,3′-diyl)bis(methylene))bis(oxy))bis(5-bromo-2-methoxypyridine-6,3-diyl))bis(methylene))bis(azetidin-3-ol)], the EC50 is at least 50000 nM. Turning to `CNC(=O)C1CN(Cc2cc(Br)c(OCc3cccc(-c4cccc(COc5nc(OC)c(CN6CC(C(=O)NC)C6)cc5Br)c4C)c3C)nc2OC)C1` [Example 256, 1,1′-(((((2,2′-dimethyl-[1,1′-biphenyl]-3,3′-diyl)bis(methylene))bis(oxy))bis(5-bromo-2-methoxypyridine-6,3-diyl))bis(methylene))bis(N-methylazetidine-3-carboxamide)], the concentration giving a half-maximal response (EC50) is 758 nM.

These data come from patent US12590062B2, “PD-1/PD-L1 inhibitors” (Gilead Sciences, Inc., priority 2017, dated 2026).
